# Data as given in patent US20240262826A1, “WILD TYPE KIT INHIBITORS” (Blueprint Medicines Corporation, priority 2022, published 2024).
# Target: wild type c-kit (Homo sapiens (Human), UniProt P10721)
# Assay: PathScan phospho c-kit (Tyr719) sandwich ELISA in SCF-stimulated M-07e cells (pKIT assay)
# Format: cell-based
# Conditions: ELISA assay (values not marked *)
# In short: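 Tyr719-phosphorylated c-kit was measured by colorimetric (TMB) sandwich ELISA in lysates of M-07e cells. Cells were starved 4 h without serum or GM-CSF, dosed 60 min at 37 °C with compound (8 points, duplicate, 0.25% DMSO), and stimulated 10 min with human SCF (500 ng/mL as added). IC50 values came from 4-parameter logistic regression.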
# wild type c-kit, sequence (P10721 26-976): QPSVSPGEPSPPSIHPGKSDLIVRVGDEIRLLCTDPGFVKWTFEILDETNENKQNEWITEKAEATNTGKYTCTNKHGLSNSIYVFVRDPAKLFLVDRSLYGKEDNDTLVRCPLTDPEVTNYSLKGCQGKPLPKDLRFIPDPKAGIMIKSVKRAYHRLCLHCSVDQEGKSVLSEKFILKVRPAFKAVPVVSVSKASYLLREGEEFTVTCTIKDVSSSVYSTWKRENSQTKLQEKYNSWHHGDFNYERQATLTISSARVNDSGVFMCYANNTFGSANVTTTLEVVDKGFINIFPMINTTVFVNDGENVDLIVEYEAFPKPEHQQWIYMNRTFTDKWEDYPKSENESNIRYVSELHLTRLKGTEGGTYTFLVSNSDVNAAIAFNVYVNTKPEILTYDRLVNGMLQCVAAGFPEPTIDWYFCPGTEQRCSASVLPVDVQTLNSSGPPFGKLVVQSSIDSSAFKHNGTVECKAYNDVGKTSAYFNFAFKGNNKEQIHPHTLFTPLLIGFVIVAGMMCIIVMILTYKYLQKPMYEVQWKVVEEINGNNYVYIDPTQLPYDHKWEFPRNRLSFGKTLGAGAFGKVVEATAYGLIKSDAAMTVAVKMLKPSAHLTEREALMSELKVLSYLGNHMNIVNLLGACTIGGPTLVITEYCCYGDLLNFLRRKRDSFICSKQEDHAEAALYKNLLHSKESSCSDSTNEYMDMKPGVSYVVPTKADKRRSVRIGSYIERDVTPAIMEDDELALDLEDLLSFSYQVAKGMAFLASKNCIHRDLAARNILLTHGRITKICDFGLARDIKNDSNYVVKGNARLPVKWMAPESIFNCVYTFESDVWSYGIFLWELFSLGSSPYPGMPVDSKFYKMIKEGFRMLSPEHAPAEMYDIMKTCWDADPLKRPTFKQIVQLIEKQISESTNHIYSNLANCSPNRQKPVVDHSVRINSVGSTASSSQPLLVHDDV
row,IC50 [nM],Compound
1,1.5,"Cc1ccc(-c2nnn(C)n2)cc1NC(=O)c1cnn2ccc(-c3cn(CCO)nc3C)cc12 [Example 228, 5-(1-(2-hydroxyethyl)-3-methyl-1H-pyrazol-4-yl)-N-(2-methyl-5-(2-methyl-2H-tetrazol-5-yl)phenyl)pyrazolo[1,5-a]pyridine-3-carboxamide]"
2,3.4,"COCCNc1ccn2ncc(C(=O)Nc3cc(-c4nnn(C5CC6(CCC6)C5)n4)ccc3C)c2c1 [Example 150, 5-((2-methoxyethyl)amino)-N-(2-methyl-5-(2-(spiro[3.3]heptan-2-yl)-2H-tetrazol-5-yl)phenyl)pyrazolo[1,5-a]pyridine-3-carboxamide]"
3,61.3,"COC(=O)N1CC(n2nnc(-c3ccc(C)c(NC(=O)c4cnn5ccc(N6CCO[C@H](CO)C6)cc45)c3)n2)C1 [Example 68, methyl (S)-3-(5-(3-(5-(2-(hydroxymethyl)morpholino)pyrazolo[1,5-a]pyridine-3-carboxamido)-4-methylphenyl)-2H-tetrazol-2-yl)azetidine-1-carboxylate]"
4,13.4,"CNc1ccn2ncc(C(=O)Nc3cc(-n4ncc(C5CN(C(=O)OC)C5)n4)ccc3C)c2c1 [Example 138, methyl 3-(2-(4-methyl-3-(5-(methylamino)pyrazolo[1,5-a]pyridine-3-carboxamido)phenyl)-2H-1,2,3-triazol-4-yl)azetidine-1-carboxylate]"
5,28.5,CCCS(=O)(=O)N1CC(n2nnc(-c3ccc(C)c(NC(=O)c4cnn5ccccc45)c3)n2)C1 [Example 174]
6,4.5,"Cc1cc(F)c(-c2nnn(C3CC(F)(F)C3)n2)cc1NC(=O)c1cnn2ccc(N3CCOCC3)cc12 [Example 59, N-(5-(2-(3,3-difluorocyclobutyl)-2H-tetrazol-5-yl)-4-fluoro-2-methylphenyl)-5-morpholinopyrazolo[1,5-a]pyridine-3-carboxamide]"
7,3.4,"COCCNc1ccn2ncc(C(=O)Nc3cc(-c4nnn(C[C@@H]5CC5(F)F)n4)ccc3C)c2c1 (single isomer, unassigned) [Example 123, (S)-N-(5-(2-((2,2-difluorocyclopropyl)methyl)-2H-tetrazol-5-yl)-2-methylphenyl)-5-((2-methoxyethyl)amino)pyrazolo[1,5-a]pyridine-3-carboxamide or (R)-N-(5-(2-((2,2-difluorocyclopropyl)methyl)-2H-tetrazol-5-yl)-2-methylphenyl)-5-((2-methoxyethyl)amino)pyrazolo[1,5-a]pyridine-3-carboxamide]"
8,7.2,"COCCNc1ccn2ncc(C(=O)Nc3cc(-n4nnc(C5CN(C(=O)OC)C5)n4)ccc3C)c2c1 [Example 125, methyl 3-(2-(3-(5-((2-methoxyethyl)amino)pyrazolo[1,5-a]pyridine-3-carboxamido)-4-methylphenyl)-2H-tetrazol-5-yl)azetidine-1-carboxylate]"
9,3.2,"COCCNc1ccn2ncc(C(=O)Nc3cc(-c4nnn(C5CC5)n4)ccc3C)c2c1 [Example 88, N-(5-(2-cyclopropyl-2H-tetrazol-5-yl)-2-methylphenyl)-5-((2-methoxyethyl)amino)pyrazolo[1,5-a]pyridine-3-carboxamide]"
10,6.3,"Cc1cc(Cl)c(NC(=O)c2cnn3ccc(N4CCOCC4)cc23)cc1-c1nnn(C2CC(F)(F)C2)n1 [Example 170, N-(2-chloro-5-(2-(3,3-difluorocyclobutyl)-2H-tetrazol-5-yl)-4-methylphenyl)-5-morpholinopyrazolo[1,5-a]pyridine-3-carboxamide]"
11,8.7,"O=C(Nc1cc(-c2nnn(C3CN(CC(F)(F)F)C3)n2)ccc1Cl)c1cnn2ccccc12 [Example 195, N-(2-chloro-5-(2-(1-(2,2,2-trifluoroethyl)azetidin-3-yl)-2H-tetrazol-5-yl)phenyl)pyrazolo[1,5-a]pyridine-3-carboxamide]"

# Further lines, the compound ahead of its results:
row,Compound,IC50 [nM]
1,"Cc1ccc(-c2nnn(C3CN(S(=O)(=O)CCC(F)F)C3)n2)cc1NC(=O)c1cnn2ccccc12 [Example 184, N-(5-(2-(1-((3,3-difluoropropyl)sulfonyl)azetidin-3-yl)-2H-tetrazol-5-yl)-2-methylphenyl)pyrazolo[1,5-a]pyridine-3-carboxamide]",6.2
2,"Nc1ccn2ncc(C(=O)Nc3cc(-c4nnn(CC5CC5(F)F)n4)ccc3Cl)c2c1 (stereo not shown) [Example 27, 5-amino-N-(2-chloro-5-(2-((2,2-difluorocyclopropyl)methyl)-2H-tetrazol-5-yl)phenyl)pyrazolo[1,5-a]pyridine-3-carboxamide]",19.3
3,"Cc1ccc(-c2nnn(C3CC(F)(F)C3)n2)cc1NC(=O)c1cnn2ccc(N3CC[C@@](C)(O)C3)cc12 (single isomer, unassigned) [Example 86, (S)—N-(5-(2-(3,3-difluorocyclobutyl)-2H-tetrazol-5-yl)-2-methylphenyl)-5-(3-hydroxy-3-methylpyrrolidin-1-yl)pyrazolo[1,5-a]pyridine-3-carboxamide or (R)—N-(5-(2-(3,3-difluorocyclobutyl)-2H-tetrazol-5-yl)-2-methylphenyl)-5-(3-hydroxy-3-methylpyrrolidin-1-yl)pyrazolo[1,5-a]pyridine-3-carboxamide]",8.6
4,"Cc1ccc(-c2cnn(C3CC3)n2)cc1NC(=O)c1cnn2ccccc12 [Example 29, N-(5-(2-cyclopropyl-2H-1,2,3-triazol-4-yl)-2-methylphenyl)pyrazolo[1,5-a]pyridine-3-carboxamide]",11.1
5,"Cc1ccc(-c2nnn(CCOC(C)C)n2)cc1NC(=O)c1cnn2ccccc12 [Example 11, N-(5-(2-(2-isopropoxyethyl)-2H-tetrazol-5-yl)-2-methylphenyl)pyrazolo[1,5-a]pyridine-3-carboxamide]",2.5
6,"COC(=O)N1CC(n2nnc(-c3ccc(Cl)c(NC(=O)c4cnn5cc(N6CCOCC6)ccc45)c3)n2)C1 [Example 163, methyl 3-(5-(4-chloro-3-(6-morpholinopyrazolo[1,5-a]pyridine-3-carboxamido)phenyl)-2H-tetrazol-2-yl)azetidine-1-carboxylate]",9.3
7,"COCCNc1ccn2ncc(C(=O)Nc3cc(-n4ncc(C5CN(C(=O)OC)C5)n4)ccc3Cl)c2c1 [Example 111, methyl 3-(2-(4-chloro-3-(5-((2-methoxyethyl)amino)pyrazolo[1,5-a]pyridine-3-carboxamido)phenyl)-2H-1,2,3-triazol-4-yl)azetidine-1-carboxylate]",11.8
8,"O=C(Nc1cc(-c2nnn(C3CC(F)(F)C3)n2)c(C2CC2)cc1Cl)c1cnn2ccc(N3CCOCC3)cc12 [Example 117, N-(2-chloro-4-cyclopropyl-5-(2-(3,3-difluorocyclobutyl)-2H-tetrazol-5-yl)phenyl)-5-morpholinopyrazolo[1,5-a]pyridine-3-carboxamide]",52.7
9,"CCOC(=O)N1CC(n2nnc(-c3ccc(C)c(NC(=O)c4cnn5ccc(N6CCN(C)CC6)cc45)c3)n2)C1 [Example 76, ethyl 3-(5-(4-methyl-3-(5-(4-methylpiperazin-1-yl)pyrazolo[1,5-a]pyridine-3-carboxamido)phenyl)-2H-tetrazol-2-yl)azetidine-1-carboxylate]",55.6
10,"Cc1ccc(-c2nnn(C3CN(S(=O)(=O)CCOCC(F)F)C3)n2)cc1NC(=O)c1cnn2ccccc12 [Example 176, N-(5-(2-(1-((2-(2,2-difluoroethoxy)ethyl)sulfonyl)azetidin-3-yl)-2H-tetrazol-5-yl)-2-methylphenyl)pyrazolo[1,5-a]pyridine-3-carboxamide]",47.9
11,"COC(=O)N1CC(n2nnc(-c3ccc(C)c(NC(=O)c4cnn5ccc(N6CCC[C@H](O)C6)cc45)c3)n2)C1 [Example 70, methyl (S)-3-(5-(3-(5-(3-hydroxypiperidin-1-yl)pyrazolo[1,5-a]pyridine-3-carboxamido)-4-methylphenyl)-2H-tetrazol-2-yl)azetidine-1-carboxylate]",53.1
12,"Cc1nn(C[C@H](O)CO)c(C)c1-c1ccn2ncc(C(=O)Nc3cc(-c4nnn(C5CC5)n4)ccc3Cl)c2c1 [Example 275, (S)-N-(2-chloro-5-(2-cyclopropyl-2H-tetrazol-5-yl)phenyl)-5-(1-(2,3-dihydroxypropyl)-3,5-dimethyl-1H-pyrazol-4-yl)pyrazolo[1,5-a]pyridine-3-carboxamide]",0.1
13,"CCn1nnc(-c2ccc(C)c(NC(=O)c3cnn4ccccc34)c2)n1 [Example 14, N-(5-(2-ethyl-2H-tetrazol-5-yl)-2-methylphenyl)pyrazolo[1,5-a]pyridine-3-carboxamide]",28.6
14,"CNc1ccn2ncc(C(=O)Nc3cc(-c4nnn(C5CN(C(=O)OC)C5)n4)ccc3C)c2c1 [Example 133, methyl 3-(5-(4-methyl-3-(5-(methylamino)pyrazolo[1,5-a]pyridine-3-carboxamido)phenyl)-2H-tetrazol-2-yl)azetidine-1-carboxylate]",34.5
15,"Cc1ccc(-c2nnn(C)n2)cc1NC(=O)c1cnn2cc(-c3cnn(CC(C)(C)O)c3)cc(F)c12 [Example 214, 4-fluoro-6-(1-(2-hydroxy-2-methylpropyl)-1H-pyrazol-4-yl)-N-(2-methyl-5-(2-methyl-2H-tetrazol-5-yl)phenyl)pyrazolo[1,5-a]pyridine-3-carboxamide]",2.7
16,"[2H]C([2H])([2H])N1CCN(c2ccn3ncc(C(=O)Nc4cc(-c5nnn(C6CN(C(=O)OC)C6)n5)ccc4C)c3c2)CC1 [Example 72, methyl 3-(5-(4-methyl-3-(5-(4-(methyl-d3)piperazin-1-yl)pyrazolo[1,5-a]pyridine-3-carboxamido)phenyl)-2H-tetrazol-2-yl)azetidine-1-carboxylate]",38.4
17,"Cc1cc(F)c(-c2nnn(C3CC3)n2)cc1NC(=O)c1cnn2ccc(-c3cn(C[C@H](O)C(C)(C)O)nc3C3CC3)cc12 [Example 258, (S)-5-(3-cyclopropyl-1-(2,3-dihydroxy-3-methylbutyl)-1H-pyrazol-4-yl)-N-(5-(2-cyclopropyl-2H-tetrazol-5-yl)-4-fluoro-2-methylphenyl)pyrazolo[1,5-a]pyridine-3-carboxamide]",0.4
